Several values for one entry are separate records, joined by “and”; a condition that tells them apart may be missing. Equal entries are not always repeated.
Key:
[1] = test system: A2780 ovarian carcinoma cells; experiment: Cytotoxicity, sulphorodamine B test (A2780); type: cell-based, human; conditions: A2780, 72 h of treatment; read-out: IC50 ± SD, cytotoxicity
Method: To evaluate the effect of the compound on survival cells, the sulphorodamine B test was used. To measure the effects of the compounds on cell growth, PC3 human prostate carcinoma and A2780 human ovarian carcinoma cells were used. A2780 and PC3 tumour cells were grown RPMI 1640 containing 10% fetal bovine serum (GIBCO).
Tumour cells were seeded in 96-well tissue culture plates at approximately 10% confluence and were allowed to attach and recover for at least 24 h. Varying concentrations of the drugs were then added to each well to calculate their IC50 value (the concentration which inhibits the 50% of cell survival). The plates were incubated at 37° C. for 72 h. At the end of the treatment, the plates were washed by removal of the supernatant and addition of PBS 3 times. 200 μl PBS and 50 μl of cold 80% trichloroacetic acid (TCA) were added. The plates were incubated on ice for at least 1 h. TCA was removed and the plates were washed 3 times by immersion in distilled-water and dried on paper and at 40° C. for 5 min. Then 200 μl of 0.4% sulphorodamine B in 1% acetic acid were added. The plates were incubated at RT for further 30 min. Sulphorodamine B was removed, the plates were washed by immersion in 1% acetic acid 3 times, then they were dried on paper and at 40° C. for 5 min. Then 200 μl Tris 10 mM were added, the plates were kept under stirring for 20 min. The cell survival was determined by means of optical density using a Multiskan spectrofluorimeter at 540 nm. The amount of cells killed was calculated as the percentage decrease in sulphorodamine B binding compared with control cultures.
The IC50 values were calculated with the “ALLFIT” program.

[2] = test system: A2780 ovarian ca. xenografted in CD1 nude mice; experiment: Antitumour activity against A2780 ovarian carcinoma xenografted in CD1 nude mice; type: in vivo; conditions: for TVI % versus control mice: 6 days after last treatment
Method: (§1) Tumour cell lines (3×10^6) were injected s.c. into the right flank of CD1 nude mice (Harlan). Each experimental group included 10 mice. Tumours were implanted on day 0, and tumour growth was followed by biweekly measurements of tumour diameters with a Vernier caliper. Tumour volume was calculated according to the formula: TV (mm^3)=d^2×D/2, where d and D are the shortest diameter and the longest diameter respectively. Drug treatment started when tumours were just measurable on day 3 after tumour inoculation. The drug was administered subcutaneously for two weeks according to the schedule qd×5/w×2w at different doses in a volume of 10 ml/kg. Control mice were treated with the vehicle (10% DMSO).
(§2) Drug efficacy was assessed as described below. • a) TVI in drug-treated versus control mice was expressed as follows: TVI (%)=100−(mean TV treated/mean TV control)×100. TVI was evaluated 6 days after the last treatment, this timing corresponding to the time necessary to observe a doubling of tumour volume in the control mice. • b) Log cell kill (LCK) was calculated using the following formula: LCK=(T−C)/3.32×DT where T and C are the mean time (in days) required for treated (T) and control (C) tumours, respectively to reach a determined volume, and DT is the time necessary to observe a doubling of tumour volume in the control mice. • c) CR was defined as disappearance of the tumour lasting at least 6 days after the end of treatments. Tumours that had not regrown by the end of the experiment were considered “cured”.
(§3) Toxic effects of drug treatment were assessed as described below. • a) BWL was calculated as follows: BWL (%)=100−(mean body weight day x/mean body weight day 1)×100, where day 1 is the first day of treatment, and day x is any day thereafter. Mice were weighed every day throughout the period of treatment. • b) Lethal toxicity was defined as any death in treated groups occurring before any control death. Mice were inspected daily for mortality.
(§4) TI (therapeutic index) was calculated as ratio MTD/ED80.

[3] = as above; type: in vivo; conditions: CD1 nude, mouse, in vivo, sc; s.c. qdx5/wx2w; read-out: approximate maximum tolerate dose (MTD)
Method: as §1, §2, §3, §4

[4] = 0.92 mg/10 ml/kg s.c. qdx5/wx2w
[5] = 2.77 mg/10 ml/kg s.c. qdx5/wx2w

CC[C@@]1(O)C(=O)OCc2c1cc1n(c2=O)Cc2c-1nc1ccccc1c2C=NOCCNC(=O)OCc1ccc(NC(=O)[C@H](CCCNC(N)=O)NC(=O)[C@H](C)NC(=O)COCCOCCOCC(=O)NCc2ccc(C[C@@H]3NC(=O)[C@@H](Cc4ccccc4)NC(=O)[C@H](CC(=O)O)NC(=O)CNC(=O)[C@H](CCCNC(=N)N)NC3=O)cc2)cc1 [ST3833]
IC50 [1]: 95 ± 20 nM | BWL % (maximum body weight loss) [2, 4]: 0% | CR (disappearance of tumour) [2, 4]: 3/10 | Cured (mice without lesion 90 days after tumour injection) [2, 4]: 3/10 | LCK (log cell kill) [2, 4]: 0.9 | Lethal toxicity (dead/treated animals) [2, 4]: 0/10 | TVI % versus control mice [2, 4]: 60% | cured mice ([2]; 0.92 mg/kg): 30% | BWL % (maximum body weight loss) [2, 5]: 0% | CR (disappearance of tumour) [2, 5]: 3/10 | Cured (mice without lesion 90 days after tumour injection) [2, 5]: 3/10 | LCK (log cell kill) [2, 5]: 1.1 | Lethal toxicity (dead/treated animals) [2, 5]: 0/10 | TVI % versus control mice [2, 5]: 75% | cured mice ([2]; 2.77 mg/kg): 30% | BWL % (maximum body weight loss) ([2]; 8.3 mg/10 ml/kg s.c. qdx5/wx2w): 0% | CR (disappearance of tumour) ([2]; 8.3 mg/10 ml/kg s.c. qdx5/wx2w): 5/10 | Cured (mice without lesion 90 days after tumour injection) ([2]; 8.3 mg/10 ml/kg s.c. qdx5/wx2w): 4/10 | LCK (log cell kill) ([2]; 8.3 mg/10 ml/kg s.c. qdx5/wx2w): 2.7 | Lethal toxicity (dead/treated animals) ([2]; 8.3 mg/10 ml/kg s.c. qdx5/wx2w): 0/10 | TVI % versus control mice ([2]; 8.3 mg/10 ml/kg s.c. qdx5/wx2w): 100% | BWL % (maximum body weight loss) ([2]; 25 mg/10 ml/kg s.c. qdx5/wx2w): 25% and 24% | CR (disappearance of tumour) ([2]; 25 mg/10 ml/kg s.c. qdx5/wx2w): 9/9 | Cured (mice without lesion 90 days after tumour injection) ([2]; 25 mg/10 ml/kg s.c. qdx5/wx2w): 9/9 | LCK (log cell kill) ([2]; 25 mg/10 ml/kg s.c. qdx5/wx2w): >11.4 | Lethal toxicity (dead/treated animals) ([2]; 25 mg/10 ml/kg s.c. qdx5/wx2w): 1/10 | TVI % versus control mice ([2]; 25 mg/10 ml/kg s.c. qdx5/wx2w): 100% | cured mice ([2]; 1/3 MTD (8.3 mg/kg)): 50% | cured mice at day 90 ([2]; at the MTD (25 mg/kg s.c.)): 100% | MTD at 2 weeks [3]: ~25 mg/kg
